target: T1, ALK (Homo sapiens, UniProt Q9UM73); assay: ALK kinase assay (HTRF), apparent Ki; assay type: biochemical; conditions: apparent Ki from IC50 by Cheng-Prusoff; ALK (Millipore), 50 μM ATP; read-out: HTRF_ALK Human-Ki
T1 construct: purchased Millipore
Procedure: The following procedure is used to determine ALK Activity.
ALK kinase assays were conducted with the indicated final concentrations unless otherwise specified. In 384 well black plates (Axygen), 8 μl of compound (2% DMSO) was incubated with 8 μl Lck-peptide substrate (0.5 μM, biotin-Ahx-GAEEEIYAAFFA-COOH) and 8 μl of a mixture of ALK (3 nM, Millipore) and ATP (50 μM) in reaction buffer (50 mM Hepes, pH 7.4; 10 mM MgCl2; 2 mM MnCl2; 0.1 mM sodium orthovanadate; 0.01% BSA and 1 mM DTT (added fresh before assay) for 1 h at room temperature. Reactions were then quenched by the addition of 30 μl quench solution (streptavidin-allophycocyanin and Europium-cryptate PT66 monoclonal antibody in 40 mM Hepes, pH 7.4; 480 mM KF; 66 mM EDTA; 0.01% Tween-20; and 0.1% BSA) at room temperature. Plates were read 1 h after quenching on an Envision Multilaber Reader and IC50 values were calculated using a sigmoidal fit of the concentration/inhibition response curves. These values were converted to apparent Ki values using the Cheng-Prusoff relationship.
Alternatively, 4 nM ALK (Millipore) and 50 μM ATP were pre-incubated for 30 min at room temperate in 384 well plates (Corning 3676) in 2.5× reaction buffer (125 nM SEB from Cisbio Bioassays, 12.5 mM MgCl2, 5 mM MnCl2, and 2.5 mM DTT). Reactions were initiated by the addition of 4 μl ALK-ATP mixture to 2 μl compounds (2% DMSO) and 4 μl TK-substrate biotin (Cisbio Bioassays). After incubation for 1 h at room temperature, reactions were quenched in 10 μl stop buffer (Cisbio detection buffer containing Streptavididn-XL665 and Eu-Cryptate PT66 monoclonal antibody). Plates were read 1 h after quenching on an Envision Multilaber Reader and IC50 values were calculated using a sigmoidal fit of the concentration/inhibition response curves. These values were converted to apparent Ki values using the Cheng-Prusoff relationship. Results are shown in Table 1 A correlates to an Ki=<100 nM, B correlates to an Ki between 100 nM and 1 μM, C correlates to an Ki=>1 μM.

T1 sequence (Q9UM73 19-1620): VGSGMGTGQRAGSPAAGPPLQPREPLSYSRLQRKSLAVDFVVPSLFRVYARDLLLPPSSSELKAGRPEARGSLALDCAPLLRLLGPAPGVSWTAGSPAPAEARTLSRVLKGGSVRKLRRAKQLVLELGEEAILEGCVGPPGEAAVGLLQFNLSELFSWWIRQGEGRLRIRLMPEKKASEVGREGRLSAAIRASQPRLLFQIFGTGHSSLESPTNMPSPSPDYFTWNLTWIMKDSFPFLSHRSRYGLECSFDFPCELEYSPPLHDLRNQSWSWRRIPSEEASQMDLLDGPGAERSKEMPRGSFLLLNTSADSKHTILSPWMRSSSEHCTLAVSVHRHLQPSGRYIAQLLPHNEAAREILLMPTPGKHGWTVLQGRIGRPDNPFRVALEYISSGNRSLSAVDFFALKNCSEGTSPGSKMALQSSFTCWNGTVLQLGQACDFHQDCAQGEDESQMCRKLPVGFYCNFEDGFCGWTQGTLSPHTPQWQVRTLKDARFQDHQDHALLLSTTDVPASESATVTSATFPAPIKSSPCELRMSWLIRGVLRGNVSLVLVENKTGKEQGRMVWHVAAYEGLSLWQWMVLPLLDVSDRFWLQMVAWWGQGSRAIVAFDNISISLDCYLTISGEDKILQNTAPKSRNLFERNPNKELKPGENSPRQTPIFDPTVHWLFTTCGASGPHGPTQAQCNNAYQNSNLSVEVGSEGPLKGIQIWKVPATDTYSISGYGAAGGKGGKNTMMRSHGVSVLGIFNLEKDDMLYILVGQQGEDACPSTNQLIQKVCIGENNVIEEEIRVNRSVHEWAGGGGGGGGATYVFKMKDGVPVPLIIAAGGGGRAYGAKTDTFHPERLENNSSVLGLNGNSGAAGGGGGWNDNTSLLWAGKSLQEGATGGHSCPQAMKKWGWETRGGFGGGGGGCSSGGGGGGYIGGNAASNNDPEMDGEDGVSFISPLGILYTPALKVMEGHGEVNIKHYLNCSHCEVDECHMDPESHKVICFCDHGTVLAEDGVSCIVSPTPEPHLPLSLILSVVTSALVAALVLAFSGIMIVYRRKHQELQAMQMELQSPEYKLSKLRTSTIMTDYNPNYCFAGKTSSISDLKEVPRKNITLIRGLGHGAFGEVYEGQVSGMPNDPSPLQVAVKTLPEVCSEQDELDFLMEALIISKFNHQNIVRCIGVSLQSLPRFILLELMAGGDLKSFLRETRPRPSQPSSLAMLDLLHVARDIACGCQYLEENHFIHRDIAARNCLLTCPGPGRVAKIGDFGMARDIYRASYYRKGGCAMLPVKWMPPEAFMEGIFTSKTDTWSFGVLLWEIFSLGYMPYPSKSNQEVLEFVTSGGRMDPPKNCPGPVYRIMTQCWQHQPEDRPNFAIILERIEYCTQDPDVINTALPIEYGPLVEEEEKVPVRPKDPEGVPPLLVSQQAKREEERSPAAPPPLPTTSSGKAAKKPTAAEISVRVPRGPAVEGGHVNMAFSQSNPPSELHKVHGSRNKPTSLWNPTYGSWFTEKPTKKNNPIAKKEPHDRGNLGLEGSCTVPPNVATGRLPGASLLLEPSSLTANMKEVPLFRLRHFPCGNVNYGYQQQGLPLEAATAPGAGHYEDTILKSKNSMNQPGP

Ki, 100 to 1000 nM:
CN1CCN(c2ccc(Nc3cc(C(C)(C)c4cccc(F)c4)cnc3C(N)=O)cc2)CC1 [Example 35, 5-[2-(3-fluorophenyl)propan-2-yl]-3-{[4-(4-methylpiperazin-1-yl)phenyl]amino}pyridine-2-carboxamide]
CC(c1cccc(F)c1)c1cnc(C(N)=O)c(Nc2ccc(N3CCN(C)CC3)c(Cl)c2)c1 (stereo not shown) [Example 36, 3-{[3-chloro-4-(4-methylpiperazin-1-yl)phenyl]amino}-5-[1-(3-fluorophenyl)ethyl]pyridine-2-carboxamide]
COc1cc(N2CCN(C)CC2)ccc1Nc1cc(C(C)c2cccc(F)c2)cnc1C(N)=O (stereo not shown) [Example 37, 5-[1-(3-fluorophenyl)ethyl]-3-{[2-methoxy-4-(4-methylpiperazin-1-yl)phenyl]amino}pyridine-2-carboxamide]
CN1CCN(c2ccc(Nc3cc(Cc4cc(F)ccc4Cl)cnc3C(N)=O)cc2Cl)CC1 [Example 40, 5-(2-chloro-5-fluorobenzyl)-3-{[3-chloro-4-(4-methylpiperazin-1-yl)phenyl]amino}pyridine-2-carboxamide]
COc1cc(N2CCN(CCN3CCOCC3)CC2)ccc1Nc1cc(Cc2c(F)cccc2Cl)cnc1C(N)=O [Example 43, 5-(2-chloro-6-fluorobenzyl)-3-[(2-methoxy-4-{4-[2-(morpholin-4-yl)ethyl]piperazin-1-yl}phenyl)amino]pyridine-2-carboxamide]
COc1cc(N2CCN(CC(C)(C)O)CC2)ccc1Nc1cc(Cc2c(F)cccc2Cl)cnc1C(N)=O [Example 45, 5-(2-chloro-6-fluorobenzyl)-3-({4-[4-(2-hydroxy-2-methylpropyl)piperazin-1-yl]-2-methoxyphenyl}amino)pyridine-2-carboxamide]
COc1cc(N2CCN(C)CC2)ccc1Nc1cc(Cc2c(F)cccc2Cl)cnc1C(N)=O [Example 46, 5-(2-chloro-6-fluorobenzyl)-3-{[2-methoxy-4-(4-methylpiperazin-1-yl)phenyl]amino}pyridine-2-carboxamide]
COc1cc(N2CCNCC2)ccc1Nc1cc(Cc2c(F)ccc(F)c2Cl)cnc1C(N)=O [Example 48, 5-(2-chloro-3,6-difluorobenzyl)-3-{[2-methoxy-4-(piperazin-1-yl)phenyl]amino}pyridine-2-carboxamide]
Cc1ccccc1-c1cnc(C(N)=O)c(Nc2ccc(N3CCN(C)CC3)cc2)c1 [Example 49, 5-(2-methylphenyl)-3-{[4-(4-methylpiperazin-1-yl)phenyl]amino}pyridine-2-carboxamide]
CN1CCN(c2ccc(Nc3cc(-c4ccccc4F)cnc3C(N)=O)cc2)CC1 [Example 50, 5-(2-fluorophenyl)-3-{[4-(4-methylpiperazin-1-yl)phenyl]amino}pyridine-2-carboxamide]
CN1CCN(c2ccc(Nc3cc(-c4cccc(C(N)=O)c4)cnc3C(N)=O)cc2)CC1 [Example 53, 5-(3-carbamoylphenyl)-3-{[4-(4-methylpiperazin-1-yl)phenyl]amino}pyridine-2-carboxamide]
CN1CCN(c2ccc(Nc3cc(-c4ccccc4NS(C)(=O)=O)cnc3C(N)=O)cc2)CC1 [Example 55, 3-{[4-(4-methylpiperazin-1-yl)phenyl]amino}-5-{2-[(methylsulfonyl)amino]phenyl}pyridine-2-carboxamide]
COc1cc(N2CCN(C)CC2)ccc1Nc1cc(-c2cccc(NS(C)(=O)=O)c2)cnc1C(N)=O [Example 57, 3-{[2-methoxy-4-(4-methylpiperazin-1-yl)phenyl]amino}-5-{3-[(methylsulfonyl)amino]phenyl}pyridine-2-carboxamide]
CN1CCN(c2ccc(Nc3cc(-c4ccccc4Cl)cnc3C(N)=O)cc2)CC1 [Example 58, 5-(2-chlorophenyl)-3-{[4-(4-methylpiperazin-1-yl)phenyl]amino}pyridine-2-carboxamide]
CN1CCN(c2ccc(Nc3cc(-c4cccc(C(=O)N(C)C)c4)cnc3C(N)=O)cc2)CC1 [Example 62, 5-[3-(dimethylcarbamoyl)phenyl]-3-{[4-(4-methylpiperazin-1-yl)phenyl]amino}pyridine-2-carboxamide]
CN1CCN(c2ccc(Nc3cc(-c4cccc(NS(=O)(=O)CC(F)(F)F)c4)cnc3C(N)=O)cc2)CC1 [Example 65, 3-{[4-(4-methylpiperazin-1-yl)phenyl]amino}-5-(3-{[(2,2,2-trifluoroethyl)sulfonyl]amino}phenyl)pyridine-2-carboxamide]

Ki, < 100 nM:
COc1cc(N2CCN(C)CC2)ccc1Nc1cc(Cc2c(Cl)cccc2Cl)cnc1C(N)=O [Example 38, 5-(2,6-dichlorobenzyl)-3-{[2-methoxy-4-(4-methylpiperazin-1-yl)phenyl]amino}pyridine-2-carboxamide]
NC(=O)c1ncc(Cc2c(Cl)cccc2Cl)cc1Nc1ccc(N2CCNCC2)cc1 [Example 39, 5-(2,6-dichlorobenzyl)-3-{[4-(piperazin-1-yl)phenyl]amino}pyridine-2-carboxamide]
COc1cc(N2CCNCC2)ccc1Nc1cc(Cc2cc(F)ccc2Cl)cnc1C(N)=O [Example 41, 5-(2-chloro-5-fluorobenzyl)-3-{[2-methoxy-4-(piperazin-1-yl)phenyl]amino}pyridine-2-carboxamide]
COc1cc(N2CCNCC2)ccc1Nc1cc(Cc2c(F)cccc2Cl)cnc1C(N)=O [Example 42, 5-(2-chloro-6-fluorobenzyl)-3-{[2-methoxy-4-(piperazin-1-yl)phenyl]amino}pyridine-2-carboxamide]
CCN(CC)CCN1CCN(c2ccc(Nc3cc(Cc4c(F)cccc4Cl)cnc3C(N)=O)c(OC)c2)CC1 [Example 44, 5-(2-chloro-6-fluorobenzyl)-3-[(4-{4-[2-(diethylamino)ethyl]piperazin-1-yl}-2-methoxyphenyl)amino]pyridine-2-carboxamide]
CCN1CCN(c2ccc(Nc3cc(Cc4c(F)cccc4Cl)cnc3C(N)=O)c(OC)c2)CC1 [Example 47, 5-(2-chloro-6-fluorobenzyl)-3-{[4-(4-ethylpiperazin-1-yl)-2-methoxyphenyl]amino}pyridine-2-carboxamide]
CN1CCN(c2ccc(Nc3cc(-c4cccc(NS(C)(=O)=O)c4)cnc3C(N)=O)cc2)CC1 [Example 54, 3-{[4-(4-methylpiperazin-1-yl)phenyl]amino}-5-{3-[(methylsulfonyl)amino]phenyl}pyridine-2-carboxamide]

Ki, > 1000 nM:
CN1CCN(c2ccc(Nc3cc(-c4cccc(F)c4)cnc3C(N)=O)cc2)CC1 [Example 51, 5-(3-fluorophenyl)-3-{[4-(4-methylpiperazin-1-yl)phenyl]amino}pyridine-2-carboxamide]
CN1CCN(c2ccc(Nc3cc(-c4cccc(Cl)c4)cnc3C(N)=O)cc2)CC1 [Example 52, 5-(3-chlorophenyl)-3-{[4-(4-methylpiperazin-1-yl)phenyl]amino}pyridine-2-carboxamide]
CN1CCN(c2ccc(Nc3cc(/C=C/c4ccccc4)cnc3C(N)=O)cc2)CC1 [Example 56, 3-{[4-(4-methylpiperazin-1-yl)phenyl]amino}-5-[(E)-2-phenylvinyl]pyridine-2-carboxamide]
CN1CCN(c2ccc(Nc3cc(-c4cccc(C#N)c4)cnc3C(N)=O)cc2)CC1 [Example 59, 5-(3-cyanophenyl)-3-{[4-(4-methylpiperazin-1-yl)phenyl]amino}pyridine-2-carboxamide]
CN1CCN(c2ccc(Nc3cc(-c4cccnc4)cnc3C(N)=O)cc2)CC1 [Example 60, 5-{[4-(4-methylpiperazin-1-yl)phenyl]amino}-3,3′-bipyridine-6-carboxamide]
CN1CCN(c2ccc(Nc3cc(-c4ccccc4C#N)cnc3C(N)=O)cc2)CC1 [Example 61, 5-(2-cyanophenyl)-3-{[4-(4-methylpiperazin-1-yl)phenyl]amino}pyridine-2-carboxamide]
CN1CCN(c2ccc(Nc3cc(-c4cn[nH]c4)cnc3C(N)=O)cc2)CC1 [Example 63, 3-{[4-(4-methylpiperazin-1-yl)phenyl]amino}-5-(1H-pyrazol-4-yl)pyridine-2-carboxamide]
CN1CCN(c2ccc(Nc3cc(-c4cnn(C)c4)cnc3C(N)=O)cc2)CC1 [Example 64, 3-{[4-(4-methylpiperazin-1-yl)phenyl]amino}-5-(1-methyl-1H-pyrazol-4-yl)pyridine-2-carboxamide]
